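In this assay, cells in 96-well plates receive the compound at five concentrations for 48 hours. Endpoints are linearly interpolated between the surrounding concentrations. TGI: concentration producing complete growth inhibition.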
Tests used:
Assay in all cases: NCI-60 cell line screen, 48 h
A498 renal = tested on: A498 renal
PC-3 prostate = tested on: PC-3 prostate
HT29 colon = tested on: HT29 colon
SK-OV-3 ovarian = tested on: SK-OV-3 ovarian
DU-145 prostate = tested on: DU-145 prostate
K-562 leukemia = tested on: K-562 leukemia
MDA-MB-435 = tested on: MDA-MB-435
OVCAR-8 ovarian = tested on: OVCAR-8 ovarian
RPMI-8226 leukemia = tested on: RPMI-8226 leukemia
OVCAR-4 ovarian = tested on: OVCAR-4 ovarian
HOP-62 NSCLC = tested on: HOP-62 NSCLC
UACC-62 melanoma = tested on: UACC-62 melanoma
CCRF-CEM leukemia = tested on: CCRF-CEM leukemia
SNB-19 CNS = tested on: SNB-19 CNS
U251 CNS = tested on: U251 CNS
SNB-75 CNS = tested on: SNB-75 CNS
HCC-2998 colon = tested on: HCC-2998 colon
LOX IMVI melanoma = tested on: LOX IMVI melanoma
UO-31 renal = tested on: UO-31 renal
ACHN renal = tested on: ACHN renal
SK-MEL-2 melanoma = tested on: SK-MEL-2 melanoma
MDA-N = tested on: MDA-N
OVCAR-5 ovarian = tested on: OVCAR-5 ovarian
SN12C renal = tested on: SN12C renal
OVCAR-3 ovarian = tested on: OVCAR-3 ovarian
M14 melanoma = tested on: M14 melanoma
SK-MEL-5 melanoma = tested on: SK-MEL-5 melanoma
HS 578T breast = tested on: HS 578T breast
MDA-MB-231 breast = tested on: MDA-MB-231 breast
UACC-257 melanoma = tested on: UACC-257 melanoma
KM12 colon = tested on: KM12 colon
786-0 renal = tested on: 786-0 renal
NCI-H23 lung = tested on: NCI-H23 lung
BT-549 breast = tested on: BT-549 breast
IGROV1 ovarian = tested on: IGROV1 ovarian
MALME-3M melanoma = tested on: MALME-3M melanoma
HCT-116 colon = tested on: HCT-116 colon
MOLT-4 leukemia = tested on: MOLT-4 leukemia
SW-620 colon = tested on: SW-620 colon
NCI-H522 lung = tested on: NCI-H522 lung
CAKI-1 renal = tested on: CAKI-1 renal
HL-60(TB) leukemia = tested on: HL-60(TB) leukemia
TK-10 renal = tested on: TK-10 renal
MCF7 breast = tested on: MCF7 breast
T-47D breast = tested on: T-47D breast
HOP-92 NSCLC = tested on: HOP-92 NSCLC
SF-539 CNS = tested on: SF-539 CNS
COLO 205 colon = tested on: COLO 205 colon
SF-295 CNS = tested on: SF-295 CNS
A549 NSCLC = tested on: A549 NSCLC
NCI/ADR-RES ovarian = tested on: NCI/ADR-RES ovarian
HCT-15 colon = tested on: HCT-15 colon
NCI-H460 lung = tested on: NCI-H460 lung
RXF 393 renal = tested on: RXF 393 renal
EKVX NSCLC = tested on: EKVX NSCLC
SK-MEL-28 melanoma = tested on: SK-MEL-28 melanoma
NCI-H226 lung = tested on: NCI-H226 lung
SF-268 CNS = tested on: SF-268 CNS

Measured: TGI

CCCCCCCCCCCCC(O)C(=O)O (centres undefined)
not listed: RXF 393 renal | EKVX NSCLC | SK-MEL-28 melanoma | NCI-H226 lung | SF-268 CNS
> 100 µM: all other assays above

Cc1nc(N(C(C)C)C(C)C)c(C(C)C)o1
not listed: RPMI-8226 leukemia | SK-MEL-2 melanoma
> 100 µM: all other assays above
